Test results taken from US20090136522A1, “Multivalent Immunogen” (priority 2006, published 2009).
Entries after “also recorded” stand apart in the source; their conditions may differ.

System: 4E10 mAb
Test: Binding of chromophore labeled tetramers to 4E10 antibody coated beads
Conditions: chromophore on tetramer-SA complex
From the text: FIGS. 6A-6F: Binding of chromophore labeled tetramers to 4E10 antibody coated beads. In all panels, shaded curves show binding to control Ig-coated beads and solid lines show binding to 4E10 coated beads. FIG. 6A. 2F5-epitope tetramers labeled with APC. FIG. 6B. 2F5-epitope tetramers labeled with PE-AF680. FIG. 6C. V3-epitope tetramers labeled with PE-AF750. FIG. 6D. Scrambled 2F5-epitope tetramers labeled with APC. FIG. 6E. Scrambled 2F5-epitope tetramers labeled with PE-AF680. FIG. 6F. Scrambled V3-epitope tetramers labeled with PE-AF750. Thus, 4E10 mAb binds to phycoerythrin on any tetramer-SA complex.
The specificity of the tetramers can be determined using a panel of murine hybridoma cell lines that produce either antibodies that react with the 2F5 epitope (5A9), the 4E10 epitope of HIV gp41 (10B12) or the V3 region of HIV gp120 (7B9 or F39F). Using these cell lines, the B cell tetramer can be bound to the cell line and assayed for binding by, for example, flow cytometry (FIGS. 4A and 4B). Alternatively, the 2F5, 4E10 anti-MPER and 7B9 anti-V3 mAbs can be conjugated to, for example, a […], and the specificity of tetramer binding to the beads determined (FIG. 5).
Studies conducted have shown that a mimetope of the MPER 4E10 region is phycoerythrin, in that 4E10 mAb coated beads bound tetramer labeled with phycoerythrin but not allophycocyanin (APC) (FIG. 6). […]

allophycocyanin [allophycocyanin (APC)]
binding to 4E10 mAb coated beads: not

phycoerythrin
binding to 4E10 mAb coated beads: binds; also recorded: bound
